According to patent US9758485B2, “Compounds for controlling arthropods” (priority 2013, dated 2017):

Experiments:
[1] = test system: Ctenocephalides felis; assay: Ctenocephalides felis - oral test; format: in vivo; settings: application rate 100 ppm in citrated cattle blood; adult fleas; kill after 2 days
Method in brief: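 DMSO stock, diluted in citrated cattle blood; ~20 unfed adult fleas feed through parafilm; % kill read at day 2 (0% = none killed).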

[2] = logP determination by HPLC on a reversed-phase column (C18), EEC Directive 79/831 Annex V.A8; format: physicochemical; settings: for logP: HPLC, reversed-phase C18, acetonitrile/water with formic acid, 55° C.; for logP^a): HPLC-MS method a), Table I-T3
[3] = test system: Rhipicephalus sanguineus; assay: Rhipicephalus sanguineus - in vitro contact tests with adult brown dog ticks; format: in vivo
Procedure: Rhipicephalus sanguineus—In Vitro Contact Tests with Adult Brown Dog Ticks
(§1) For the coating of the test tubes, 9 mg of active ingredient are first dissolved in 1 ml of acetone p.a. and then diluted to the desired concentration with acetone p.a. 250 μl of the solution are distributed homogeneously on the inner walls and base of a 25 ml test tube by turning and rocking on an orbital shaker (rocking rotation at 30 rpm for 2 h). With 900 ppm active ingredient solution and internal surface 44.7 cm^2, given homogeneous distribution, an area-based dose of 5 μg/cm^2 is achieved.
After the solvent has evaporated off, the tubes are populated with 5-10 adult dog ticks (Rhipicephalus sanguineus), sealed with a perforated plastic lid and incubated in a horizontal position in the dark at room temperature and ambient humidity. After 48 h, efficacy is determined. To this end, the ticks are knocked to the floor of the tube and incubated on a hotplate at 45-50° C. for not more than 5 min. Ticks which remain motionless on the floor or move in such an uncoordinated manner that they are unable to deliberately avoid the heat by climbing upwards are considered to be dead or moribund.
An efficacy of 100% means that all the ticks were dead or moribund. 0% efficacy means that none of the ticks had been harmed.

[4] = test system: Boophilus microplus Parkhurst strain, SP-resistant; assay: Boophilus microplus - dip test; format: in vivo; settings: application rate 100 ppm; dip of engorged adult female ticks; laying of fertile eggs, after 7 days
Procedure: Boophilus microplus—Dip Test
Test animals: cattle ticks (Boophilus microplus) Parkhurst strain, SP-resistant
(§2) Solvent: dimethyl sulphoxide
10 mg of active ingredient are dissolved in 0.5 ml of dimethyl sulphoxide. For the purpose of producing a suitable formulation, the active ingredient solution is diluted with water to the concentration desired in each case.
This active ingredient formulation is pipetted into tubes. 8-10 adult engorged female cattle ticks (Boophilus microplus) are transferred into a further tube with holes. The tube is immersed into the active ingredient formulation, and all the ticks are completely wetted. After the liquid has run out, the ticks are transferred on filter discs into plastic dishes and stored in a climate-controlled room.
Efficacy is assessed after 7 days by laying of fertile eggs. Eggs which are not visibly fertile are stored in a climate-controlled cabinet until the larvae hatch after about 42 days. An efficacy of 100% means that none of the ticks has laid any fertile eggs; 0% means that all the eggs are fertile.

[5] = test system: Lucilia cuprina; assay: Lucilia cuprina test; format: in vivo; settings: application rate 100 ppm; L1 larvae in minced horsemeat; kill after 2 days
Method in brief: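 Mortality (%) of first-instar blowfly larvae, about 20 per vessel, recorded 2 days after exposure to compound-treated minced horsemeat. Compound dissolved in dimethyl sulphoxide, then water-diluted to the desired concentration.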

[6] = test system: Boophilus microplus; assay: Boophilus microplus - injection test; format: in vivo; settings: application rate 20 μg/animal; injected into engorged adult female ticks; laying of fertile eggs, after 7 days
Method in brief: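 Steps: dilute compound in DMSO to the desired concentration; inject 1 μl abdominally into 5 engorged adult females; keep in climate-controlled dishes; at 7 days score fertile egg laying, incubating doubtful eggs until hatch at about 42 days.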

[7] = test system: Musca domestica; assay: Musca domestica test; format: in vivo; settings: application rate 100 ppm; adult houseflies; kill after 2 days
Procedure: as §2
To produce an appropriate active ingredient formulation, 10 mg of active ingredient are mixed with 0.5 ml of dimethyl sulphoxide, and the concentrate is diluted with water to the desired concentration.
Vessels containing a sponge treated with sugar solution and the active ingredient formulation of the desired concentration are populated with 10 adult houseflies (Musca domestica).
After 2 days, the kill in % is determined. 100% means that all of the flies have been killed; 0% means that none of the flies have been killed.

[8] = test system: Ctenocephalides felis; assay: Ctenocephalides felis - in vitro contact tests with adult cat fleas; format: in vivo; settings: application rate 5 μg/cm^2 (=500 g/ha), after 48 h (dead or moribund)
Procedure: Ctenocephalides felis—In Vitro Contact Tests with Adult Cat Fleas
as §1, with “surface area” for “surface”
After the solvent has evaporated off, the tubes are populated with 5-10 adult cat fleas (Ctenocephalides felis), sealed with a perforated plastic lid and incubated in a horizontal position at room temperature and ambient humidity. After 48 h, efficacy is determined. To this end, the test tubes are stood upright and the fleas are knocked to the base of the tube. Fleas which remain motionless at the base or move in an uncoordinated manner are considered to be dead or moribund.
100% efficacy means that all the fleas were dead or moribund. 0% efficacy means that no fleas were harmed.

[9] = HPLC-MS, reversed-phase column (C18)
[10] = application rate 5 μg/cm^2, after 48 h (dead or moribund)
[11] = HPLC on reversed-phase column (C18)

For `N#CC1(NC(=O)c2cc(-c3cnn(-c4c(Br)cc(C(F)(C(F)(F)F)C(F)(F)F)cc4C(F)(F)F)c3)cnc2Cl)CC1` [I-T3-165], the efficacy [1] was 100%, the “log P” value [2, 9] was 3.9 and the efficacy [3, 10] was 100%. For the same compound, the efficacy [4] was 100%, the efficacy [5] was 100% and the efficacy [6] was 100%. It also gave an efficacy [7] of 100% and an efficacy [8] of 100%.
With `Cc1cc(C(F)(C(F)(F)F)C(F)(F)F)cc(C(F)(F)F)c1-c1cc(-c2cnc(Cl)c(C(=O)NC3CC3)c2)on1` [I-T22-6] the efficacy [1] was 95%, the logP [2] was 4.5 and the efficacy [3, 10] was 100%. It also gave an efficacy [4] of 100%, an efficacy [5] of 100% and an efficacy [6] of 100%. The efficacy [7] was 90%.
For `CCc1cc(C(F)(C(F)(F)F)C(F)(F)F)ccc1-n1cc(-c2ccc(Cl)c(C(=O)NC3(C#N)CC3)c2)cn1` [I-T3-38], the efficacy [1] was 100%, the “logP^a)” value [2] was 4.5 and the efficacy [3, 10] was 80%. For the same compound, the efficacy [5] was 100%, the efficacy [6] was 100% and the efficacy [7] was 100%.
With `O=C(NC1CC1)c1cc(-c2cnn(-c3ccc(C(F)(C(F)(F)F)C(F)(F)F)cc3C(F)(F)F)c2)ccc1Cl` [I-T3-52] the efficacy [1] was 100%, the “logP^a)” value [2] was 4.3 and the efficacy [3, 10] was 100%. It also gave an efficacy [5] of 100%, an efficacy [6] of 100% and an efficacy [7] of 100%.
For `O=C(NC1CC1)c1cc(-c2cnn(-c3c(Br)cc(C(F)(C(F)(F)F)C(F)(F)F)cc3C(F)(F)F)c2)cnc1Cl` [I-T3-160], the efficacy [1] was 100%, the “log P” value [2, 9] was 4.0 and the efficacy [3, 10] was 100%. For the same compound, the efficacy [4] was 100%, the efficacy [5] was 100% and the efficacy [6] was 100%. It also gave an efficacy [7] of 100% and an efficacy [8] of 100%.
In the case of `O=C(NC1CC1)c1cc(-c2cnn(-c3ccc(OC(F)(F)F)cc3Cl)c2)ccc1Cl` [I-T3-90], the efficacy [1] is reported as 100%, the “logP^a)” value [2] is reported as 3.6 and the efficacy [3, 10] is reported as 100%. The efficacy [5] was 100%, the efficacy [6] was 100% and the efficacy [7] was 90%.
`Cc1cc(C(F)(C(F)(F)F)C(F)(F)F)cc(C)c1-c1cnn(-c2ccc(Cl)c(C(=O)NC3(C#N)CC3)c2)c1` [I-T4-2] showed an efficacy [1] of 100%, a logP [2] of 4.6 and an efficacy [3, 10] of 100%. It also gave an efficacy [5] of 100%, an efficacy [6] of 100% and an efficacy [7] of 100%. It also gave an efficacy [8] of 100%.
In the case of `CCc1cc(C(F)(F)C(F)(F)F)cc(C)c1-n1cc(-c2ccc(Cl)c(C(=O)NC3(C#N)CC3)c2)cn1` [I-T3-80], the efficacy [1] is reported as 100%, the “logP^a)” value [2] is reported as 4.2 and the efficacy [3, 10] is reported as 80%. The efficacy [4] was 80%, the efficacy [5] was 100% and the efficacy [6] was 100%. For the same compound, the efficacy [7] was 100% and the efficacy [8] was 100%.
For `COc1ncc(-c2cnn(-c3c(C)cc(C(F)(C(F)(F)F)C(F)(F)F)cc3C)c2)cc1C(=O)NC1CC1` [I-T3-143], the efficacy [1] was 100%, the “log P” value [2, 9] was 4.6 and the efficacy [3, 10] was 80%. For the same compound, the efficacy [5] was 100%, the efficacy [6] was 100% and the efficacy [7] was 100%. For the same compound, the efficacy [8] was 100%.
With `COc1ncc(-c2cnn(-c3c(C)cc(C(F)(C(F)(F)F)C(F)(F)F)cc3C)c2)cc1C(=O)NC1(C#N)CC1` [I-T3-141] the efficacy [1] was 100%, the “log P” value [2, 9] was 4.4 and the efficacy ([3]; application rate 1 μg/cm^2, after 48 h (dead or moribund)) was 100%. The efficacy [5] was 100%, the efficacy [6] was 100% and the efficacy [7] was 100%.
With `Cc1cc(C(F)(C(F)(F)F)C(F)(F)F)cc(C(F)(F)F)c1-c1cc(-c2cnc(Cl)c(C(=O)NC3(C#N)CC3)c2)on1` [I-T22-4] the efficacy [1] was 100%, the logP [2] was 4.4 and the efficacy [3, 10] was 100%. The efficacy [4] was 100% and the efficacy [6] was 100%.
With `Cc1cc(C(F)(C(F)(F)F)C(F)(F)F)cc(C(F)(F)F)c1-c1cc(-c2ccc(Cl)c(C(=O)NC3CC3)c2)on1` [I-T22-5] the efficacy [1] was 100%, the logP [2] was 4.9 and the efficacy [3, 10] was 100%. It also gave an efficacy [4] of 100%, an efficacy [5] of 100% and an efficacy [6] of 100%. The efficacy [7] was 100% and the efficacy [8] was 100%.
In the case of `O=C(NC1CC1)c1cc(-c2cnn(-c3c(Cl)cc(C(F)(C(F)(F)F)C(F)(F)F)cc3OC(F)F)c2)cnc1Cl` [I-T3-196], the “log P” value [2, 11] is reported as 3.9, the efficacy [3, 10] is reported as 100% and the efficacy [8] is reported as 100%.
With `CCc1cc(C(F)(C(F)(F)F)C(F)(F)F)cc(C)c1-n1cc(-c2ccc(Cl)c(C(=O)NC3CSC3)c2)cn1` [I-T3-47] the efficacy [1] was 100%, the “logP^a)” value [2] was 5.0 and the efficacy [3, 10] was 100%. The efficacy [5] was 100% and the efficacy [6] was 100%.
With `CCc1cc(C(F)(C(F)(F)F)C(F)(F)F)cc(C)c1-n1cc(-c2ccc(Cl)c(C(=O)NC3(C#N)CC3)c2)cn1` [I-T3-46] the efficacy [1] was 100%, the “logP^a)” value [2] was 4.6 and the efficacy [3, 10] was 100%. For the same compound, the efficacy [5] was 100%, the efficacy [6] was 100% and the efficacy [7] was 100%. For the same compound, the efficacy [8] was 100%.
In the case of `Cc1cc(C(F)(C(F)(F)F)C(F)(F)F)cc(I)c1-n1cc(-c2ccc(Cl)c(C(=O)NC3(C#N)CC3)c2)cn1` [I-T3-176], the efficacy [1] is reported as 100%, the “log P” value [2, 9] is reported as 4.4 and the efficacy [3, 10] is reported as 100%. The efficacy [4] was 100%, the efficacy [5] was 100% and the efficacy [6] was 100%. For the same compound, the efficacy [7] was 100% and the efficacy [8] was 100%.
With `Cc1cc(C(F)(C(F)(F)F)C(F)(F)F)cc(I)c1-n1cc(-c2ccc(Cl)c(C(=O)NC3CC3)c2)cn1` [I-T3-175] the efficacy [1] was 100%, the “log P” value [2, 9] was 4.5 and the efficacy [3, 10] was 100%. The efficacy [4] was 100%, the efficacy [5] was 100% and the efficacy [6] was 100%. For the same compound, the efficacy [7] was 100% and the efficacy [8] was 100%.
For `O=C(NC1CC1)c1cc(-c2cnn(-c3c(Cl)cc(C(F)(C(F)(F)F)C(F)(F)F)cc3OC(F)(F)F)c2)cnc1Cl` [I-T3-189], the efficacy [1] was 100%, the “log P” value [2, 11] was 4.3 and the efficacy [3, 10] was 100%. For the same compound, the efficacy [5] was 100%, the efficacy [7] was 100% and the efficacy [8] was 100%.
In the case of `O=C(NC1CC1)c1cc(-c2cnn(-c3c(Cl)cc(OC(F)(F)F)cc3Cl)c2)ccc1Cl` [I-T3-88], the efficacy [1] is reported as 100%, the “logP^a)” value [2] is reported as 3.6 and the efficacy [3, 10] is reported as 80%. For the same compound, the efficacy [5] was 100%, the efficacy [6] was 100% and the efficacy [7] was 80%. The efficacy [8] was 100%.
